# Experimental data taken from paper PMC3997483, “Aminostyrylbenzofuran Directly Reduces Oligomeric Amyloid-β and Reverses Cognitive Deficits in Alzheimer Transgenic Mice” (PLoS ONE, 2014).
# How the values were obtained:
# Plasma stability = format: in vitro ADME; details: 37 °C
# Method: Plasma stability studies Plasma stability of the KMS88009 was studied in human, dog, rat and mouse plasma. Each plasma from different species was diluted to 5-fold with 0.05 M phosphate buffered saline (PBS, pH 7.4 at 37 °C). We added KMS88009 to 1 mL of preheated plasma solution to yield a final concentration of 1 μM. The assay was performed in a shaking water bath at 37 °C and conducted in triplicate. Samples (50 μL) were taken at 0, 0.5, 1, 2 and 6 hr and added to 10 μL of 0.05% formic acid. The samples were subjected to vortex mixing for 1 min and centrifuged at 4 °C for 20 min at 14,000 rpm. The clear supernatants were analyzed by liquid chromatography/mass/mass spectrometry (LC-MS/MS). Values are expressed as the mean ± SD of 2 independent experiments. Stability is expressed as the percentage of remaining compound in % relative to the start concentration set to 100%.
# APP/PS1 TG mice = experiment: Morris water maze, prophylactic trial; format: in vivo, mouse; details: for swimming time % within the target quadrant (probe trial): APP/PS1 TG mice, vehicle TG 23.4%, WT 44.3%; for Latency (hidden platform): TG mice
# Method: Behavioral tests were performed in the following sequence: Y-maze (day 1), Morris water maze (day 4 to 12) and contextual fear conditioning (day 26 to 27). To reduce stress, contextual fear conditioning was carried out 2 weeks after the Morris water maze task. In the therapeutic trial, APP/PS1 TG mice were treated with KMS88009 (30 mg/kg/day) for 3 months from 9 to 12 months of age. Y-maze tests short-term spatial working memory. Y-maze is a 3-armed (40 L×10 W×12 H cm) horizontal maze in which the arms are symmetrically disposed at 120° angles from each other. Mice were placed at the end of one arm and allowed to move freely through the maze during a 5-min session. Arm entry was considered completed when the hind paws of the mouse were completely placed in the arm. Alternation was defined as successive entries into the 3 arms on overlapping triplet sets. The series of arm entries was recorded via video recorders. The percentage of alternation was defined according to the following equation: % alternation = [(number of alternations)/(total arm entries - 2)] ×100. Mice performing fewer than 7 alternations in 5 min were excluded from the subsequent analysis to accurately determine alternation scores. Morris water maze was used to measure spatial learning and memory. A stainless pool apparatus with a diameter of 120 cm was used. A clear escape platform (circle, 12×12 cm) was located 1.0 cm below (hidden) the water surface containing white nontoxic paint. The temperature of water was kept constant throughout the experiment (21±1°C). The visual cues, for mice to recognize the environment and direction, are placed on the walls around the pool. The training was consisted of 8 consecutive days of testing with 4 trials per day. When a mouse was located on the escape platform, it was permitted to remain on the platform for 15 sec. […] Then the subject was returned to its home cage and allowed to dry up after each trial. The platform location was kept constant and the starting position was varied. Each mouse was placed in the water with their nose pointing toward the wall at one of the starting points in a random manner. During each trial session, the time taken to find the hidden platform (latency) was recorded using a video camera-based Ethovision System (Nodulus, Nertherlands). On the 9th day, each mouse was tested on a probe trial. The platform was removed from pool and the mice were allowed to swim for 60 sec to search. Swimming time was recorded during mice were in the pool quadrant where the platform had been previously located. Mice, which float or jump from platform, were eliminated from the experiment since these responses may be incompatible with the behaviors needed to locate and learn the platform position. In addition, animals with difficulty in swimming were also excluded from this study. Fear conditioning task was measured to test the ability to learn and remember an association between an aversive experience and environmental cues. Contextual fear conditioning evaluation was performed using a fear-conditioning chamber (Courlbourn, USA) equipped with a computer-controlled fear conditioning system (FreActimetrics, USA). On the first day of training, each mouse was placed in the conditioning chamber and left to adjust for 2 min. Fear conditioning test was performed with conditional stimulus (CS) of sound (75 dB) for 20 sec followed by unconditional stimulus (US) of electric foot-shock (0.5 mA) for the last 2 sec in CS. After 1 min, the subject was returned to its home cage. After 24 hr, retention test was performed. […] Freezing response was measured without CS or US. Freezing behavior was defined as the complete absence of any movement except for respiration and heartbeat. Animals with no response to the foot-shock during training were excluded from the analysis. Data analyses including recordings of all behavioral responses were performed by keeping research colleagues blind.
# Aβ40 and Aβ42 = experiment: Aβ40/Aβ42 sandwich ELISA of brain tissue, prophylactic trial; format: in vivo, mouse
# Method: Mice subjected to behavior tests were sacrificed and levels of Aβ in their brains were analyzed. After removing olfactory lobe and cerebellum of brain, hippocampus and cerebral cortex were separated. The separated regions were Dounce-homogenized first in 10-fold mass of a lysis buffer (RIPA, 150 mM NaCl, 1% NP-40, 0.5% deoxycholic acid, 0.1% SDS and 50 mM tris, pH 8.0) or tris buffer (50 mM tris and pH 8.0) containing protease inhibitor cocktail (Pierce, USA) for prophylactic or therapeutic treatment groups, respectively. […] The supernatant (soluble Aβ fraction) was collected and stored at −70°C until analyzed. The resulting pellet was solubilized in 20-fold mass of cold guanidine solution (5 M guanidine HCl, 50 mM tris HCl and pH 8.0) at room temperature for 4 hr followed by dilution with cold Dulbecco's phosphate buffered saline (PBS) with 5% BSA and 0.03% tween-20. […] The tissue concentrations of Aβ40 and Aβ42 in the soluble and insoluble fraction were measured using Aβ-detecting sandwich enzyme-linked immunosorbent assay (ELISA) kit (BioSource, USA). The levels of soluble Aβ oligomers were measured by a dot-blot immunoassay with an anti-oligomer antibody and an anti-Aβ antibody on soluble fraction of hippocampus homogenates. The homogenate sample (3 µL) was spotted onto nitrocellulose membrane (Whatman, UK). After blocking with 5% BSA in tris-buffered saline (TBS) for 1 hr at room temperature, the membrane was incubated with rabbit anti-oligomer polyclonal antibody (A11; 1∶1,000; Millipore, USA) overnight at 4°C, followed by incubation with HRP-secondary anti-rabbit antibody (1∶5,000; Millipore, USA) for 1 hr at room temperature. Blots were developed using ECL reagents (PerkinElmer, USA). Blots were re-identified after oligomeric antibody was stripped and re-probing with the anti-Aβ antibody 6E10 (1∶1,000; Signet, UK). The density of dots was analyzed with Multi Gauge program (Fuji Film, Japan) and the data was normalized to the average density of the TG control group. […] Membrane was incubated in a 5% solution of non-fat dry milk for 1 hr at room temperature. […]
# [1] = cortex, 10-100 mg/kg/day groups
smiles,measurement,setting,value
"COc1ccc2cc(C=Cc3ccc(N(C)C)cc3)oc2c1 [KMS88009, 6-methoxy-2-(4-dimethylaminostyryl) benzofuran]",Parent compound remaining,"Plasma stability; dog plasma, 0.5 hr",100.0%
same,Parent compound remaining,"Plasma stability; dog plasma, 1 hr",100.0%
same,Parent compound remaining,"Plasma stability; dog plasma, 2 hr",100.0%
same,Parent compound remaining,"Plasma stability; dog plasma, 6 hr",100.0%
same,Parent compound remaining,"Plasma stability; human plasma, 0.5 hr",100.0%
same,Parent compound remaining,"Plasma stability; human plasma, 1 hr",100.0%
same,Parent compound remaining,"Plasma stability; human plasma, 2 hr",82.0%
same,Parent compound remaining,"Plasma stability; human plasma, 6 hr",100.0%
same,Parent compound remaining,"Plasma stability; mouse plasma, 0.5 hr",100.0%
same,Parent compound remaining,"Plasma stability; mouse plasma, 1 hr",100.0%
same,Parent compound remaining,"Plasma stability; mouse plasma, 2 hr",100.0%
same,Parent compound remaining,"Plasma stability; mouse plasma, 6 hr",100.0%
same,Parent compound remaining,"Plasma stability; rat plasma, 0.5 hr",86.9%
same,Parent compound remaining,"Plasma stability; rat plasma, 1 hr",93.7%
same,Parent compound remaining,"Plasma stability; rat plasma, 2 hr",100.0%
same,Parent compound remaining,"Plasma stability; rat plasma, 6 hr",100.0%
same,swimming time % within the target quadrant (probe trial),APP/PS1 TG mice; PO 10 mg/kg/day,40.4%
same,swimming time % within the target quadrant (probe trial),APP/PS1 TG mice; PO 30 mg/kg/day,39.7%
same,swimming time % within the target quadrant (probe trial),APP/PS1 TG mice; PO 100 mg/kg/day,37.6%
same,Latency (hidden platform),"APP/PS1 TG mice; Day 1, dose group + (10 mg/kg/day)",50.5 ± 2.1 s
same,Latency (hidden platform),"APP/PS1 TG mice; Day 1, dose group ++ (30 mg/kg/day)",49.2 ± 2.4 s
same,Latency (hidden platform),"APP/PS1 TG mice; Day 1, dose group +++ (100 mg/kg/day)",48.3 ± 3.0 s
same,Latency (hidden platform),"APP/PS1 TG mice; Day 2, dose group + (10 mg/kg/day)",39.8 ± 2.7 s
same,Latency (hidden platform),"APP/PS1 TG mice; Day 2, dose group ++ (30 mg/kg/day)",38.3 ± 3.0 s
same,Latency (hidden platform),"APP/PS1 TG mice; Day 2, dose group +++ (100 mg/kg/day)",37.6 ± 5.2 s
same,Latency (hidden platform),"APP/PS1 TG mice; Day 3, dose group + (10 mg/kg/day)",31.1 ± 2.5 s
same,Latency (hidden platform),"APP/PS1 TG mice; Day 3, dose group ++ (30 mg/kg/day)",30.6 ± 3.3 s
same,Latency (hidden platform),"APP/PS1 TG mice; Day 3, dose group +++ (100 mg/kg/day)",34.3 ± 4.3 s
same,Latency (hidden platform),"APP/PS1 TG mice; Day 4, dose group + (10 mg/kg/day)",35.1 ± 2.8 s
same,Latency (hidden platform),"APP/PS1 TG mice; Day 4, dose group ++ (30 mg/kg/day)",32.9 ± 3.0 s
same,Latency (hidden platform),"APP/PS1 TG mice; Day 4, dose group +++ (100 mg/kg/day)",32.0 ± 4.0 s
same,Latency (hidden platform),"APP/PS1 TG mice; Day 5, dose group + (10 mg/kg/day)",41.8 ± 3.2 s
same,Latency (hidden platform),"APP/PS1 TG mice; Day 5, dose group ++ (30 mg/kg/day)",36.3 ± 4.2 s
same,Latency (hidden platform),"APP/PS1 TG mice; Day 5, dose group +++ (100 mg/kg/day)",29.6 ± 4.1 s
same,Latency (hidden platform),"APP/PS1 TG mice; Day 6, dose group + (10 mg/kg/day)",32.9 ± 1.9 s
same,Latency (hidden platform),"APP/PS1 TG mice; Day 6, dose group ++ (30 mg/kg/day)",29.3 ± 3.9 s
same,Latency (hidden platform),"APP/PS1 TG mice; Day 6, dose group +++ (100 mg/kg/day)",33.4 ± 4.8 s
same,Latency (hidden platform),"APP/PS1 TG mice; Day 7, dose group + (10 mg/kg/day)",31.7 ± 2.6 s
same,Latency (hidden platform),"APP/PS1 TG mice; Day 7, dose group ++ (30 mg/kg/day)",28.6 ± 3.5 s
same,Latency (hidden platform),"APP/PS1 TG mice; Day 7, dose group +++ (100 mg/kg/day)",30.0 ± 2.6 s
same,Latency (hidden platform),"APP/PS1 TG mice; Day 8, dose group + (10 mg/kg/day)",26.6 ± 3.0 s
same,Latency (hidden platform),"APP/PS1 TG mice; Day 8, dose group ++ (30 mg/kg/day)",25.6 ± 3.0 s
same,Latency (hidden platform),"APP/PS1 TG mice; Day 8, dose group +++ (100 mg/kg/day)",27.9 ± 4.6 s
same,reduction of soluble Aβ40 level vs TG group,Aβ40 and Aβ42; [1],44∼60%
same,reduction of soluble Aβ42 level vs vehicle-treated TG mice,Aβ40 and Aβ42; [1],59∼66%
same,reduction of soluble Aβ40 level vs TG group,"Aβ40 and Aβ42; hippocampus, except the 10 mg/kg/day group",34∼36%
